From patent US20260072027A1, “Peptides And Method” (Queen Mary University of London, priority 2022, published 2026)
One block for each substance: values may come before it. Where no end group is shown, it is not given here. [ ]: non-standard residue; d: D form. Dopa = N[C@@H](Cc1ccc(O)c(O)c1)C(=O)O; Cya = N[C@@H](CS(=O)(=O)O)C(=O)O

Columns and labels:
serum IgG autoantibodies = assay: ELISA for autoantibody detection: serum antibody binding to native and oxPTM insulin peptides; parameters: species or system human; settings: for % binders, Healthy controls / Mean ± SEM (absorbance, OD), Healthy controls / % binders, Type 1 diabetes: Study cohort 1; for % binders, Type 1 diabetes: cut-off = mean of healthy controls to Nt-INSP plus 3 SEM; for Mean ± SEM (absorbance, OD), Type 1 diabetes: Study cohort 1 sera
Description: ELISA for autoantibody detection. The ELISA analysis of Nt-INS and oxPTM-INS autoantibodies was performed as previously described [18](detailed in ESM methods, ELISA assay for antibody detection).
Statistical analyses. Statistical analyses were performed using Prism Software 9.0 (GraphPad, San Diego, CA, USA). Cut-off points of positivity (binders) in the antibody ELISA for each peptide were defined by the mean of optical absorbance (O.D) of healthy controls to the corresponding Nt-INSP plus three times the standard error of the mean (SEM). Specificity and sensitivity were evaluated by receiver operating characteristic (ROC) curve analysis. Area under the curve (AUC) is reported as absolute value and was tested for equality according to DeLong et al. Differences in antibody levels and T-cell stimulation indices (SI) between groups were tested by the One way ANOVA or Student's t-tests as appropriate. Correlation analyses were tested by Pearson or Spearman's test, as appropriate. Categorical analyses were performed by Chi-square or McNemar's tests, as appropriate. For each set of experiments, p values were adjusted for multiple comparison using the Holm-Sidak's test. Hierarchical cluster and Principal Component Analysis (PCA) was done using Clustvis software (https://biit.cs.ut.ee/clustvis/) and Prism Software 9.0, respectively.
Antibody reactivity of type 1 diabetes serum against the candidate oxPTM-INSP. Identified peptide candidates were synthesised and exposed to either HOCl or ^●OH to generate oxPTM-INSPs that were first assessed by TOF-MS/ES+TIC to confirm modification (FIG. 17). Antibody response against native INSPs (Nt-INSPs) and oxPTM-INSPs was evaluated by ELISA using sera from Study cohort 1.
ESM Methods ELISA assay for antibody detection. The ELISA analysis of native (Nt-INS) and modified insulin (oxPTM-INS) was performed as previously described. Briefly, the ELISA plate was coated overnight at 4° C. with 100 μl per well of modified or native insulin in 0.05 M carbonate/bicarbonate buffer pH 9.6 at 10 μg/ml. The next day, the plates were washed 3 times with 0.1% Tween PBS, followed by blocking for 2 hours at room temperature with 200 μl per well of 5% BSA in 0.1% Tween PBS. After washing, 100 μl of 1:200-diluted serum samples in 5% BSA-0.1% Tween PBS were added for additional 2 hours incubation. ELISA plates were then washed 3 times with 0.1% Tween PBS followed by probing with anti-human IgG horse radish peroxidase conjugated (HRP, Sigma) at 1:1,000 dilution in 5% BSA-0.1% Tween PBS for another 1.5 hours incubation. The ELISA plates were washed, and 100 μg/ml TMB substrate in 0.1M sodium acetate pH 6.0 plus 2 μl/10 ml of H2O2, were added. Subsequently, the reaction was stopped with 20% v/v sulphuric acid. The optical density (O.D.) was measured at 450 nm using a GENios plate reader and Magellan software (TECAN, Dorset, UK).

CD8+ T-cells (PBMCs) = assay: In vitro peptide stimulation and T-cell proliferation assay, CD8+; format: cell-based, human
Source text: (§1) In vitro peptide stimulation and T-cell proliferation assay. Peripheral blood mononuclear cells (PBMCs) were freshly isolated from type 1 diabetes and healthy individuals using Ficoll-Hypaque density gradient centrifugation. PBMCs were labelled with the fluorescent dye CellTrace Violet (Invitrogen, Thermo Fisher Scientific) and cultured (2×10^5 cells/well) in round-bottom 96-well plates (Falcon, Becton Dickinson) with RPMI-1640 medium (Gibco, Thermo Fisher Scientific) supplemented with 5% autologous plasma in the presence or not of insulin peptides (20 μg/ml); PPD (10 μg/ml) and anti-CD3 (0.1 μg/ml; clone OKT3) were used as positive control. Two scrambled peptides: […] (SEQ ID NO: 17), […] (SEQ ID NO: 18), and the Exendin 9-39 fragment were used as negative controls. After 7 days, PBMCs were stained with PE-Cy7 anti-CD8 (clone RPA-T8, BD Pharmingen) and FITC anti-CD3 (clone UCHT1, BD Pharmingen). Samples were analysed by using a FACSCanto II (BD Bioscience) to evaluate T-cell proliferation measured as CellTrace Violet dilution. Cytofluorimetric analyses were performed using FlowJo Software (FlowJo, LLC). The results were given as stimulation index (SI), calculated as percentage of stimulated T-cell subset proliferation/percentage of unstimulated T-cell subset proliferation. Assay for detection of peptide specific T cells subsets was done as previously described (detailed in ESM methods, Assay for detection of peptide specific T cells)
(§2) T-cell stimulation with oxPTM-INSPs. To evaluate the immune cell response against the oxPTM-INSPs, we performed CD4+ and CD8+ T cells proliferation experiments using freshly isolated PBMCs (Study cohort 2, Table 1). Response was calculated as stimulatory index (SI) over unstimulated T-cells.

CD4+ T-cells (PBMCs) = assay: In vitro peptide stimulation and T-cell proliferation assay, CD4+; format: cell-based, human
Source text: as §1, §2

- % binders, Healthy controls (serum IgG autoantibodies; in house modifications): 25%
- Mean ± SEM (absorbance, OD), Healthy controls (serum IgG autoantibodies; in house modifications): 0.312 ± 0.019
- % binders, Type 1 diabetes (serum IgG autoantibodies; in house modifications): 43%
- Mean ± SEM (absorbance, OD), Type 1 diabetes (serum IgG autoantibodies; in house modifications): 0.391 ± 0.013
Substance: INSP-6 oxPTM-HOCI: INSP-6 peptide oxidised in house by HOCl (ERGFFYTPKT; not fully specified (N-terminus); also: oxidised by HOCl, modified residues not defined)

- type 1 diabetes binders (IgG autoantibody reactivity) (serum IgG autoantibodies; Study cohort 2, N = 18): 33.3%
Substance: Nt-INS: native human recombinant insulin

- % binders, Healthy controls (serum IgG autoantibodies; in silico modifications): 30%
- Mean ± SEM (absorbance, OD), Healthy controls (serum IgG autoantibodies; in silico modifications): 0.169 ± 0.008
- % binders, Type 1 diabetes (serum IgG autoantibodies; in silico modifications): 57%
- Mean ± SEM (absorbance, OD), Type 1 diabetes (serum IgG autoantibodies; in silico modifications): 0.256 ± 0.018
Substance: SL-DOPA-QLEN-DOPA-Cysteate-N (SL[Dopa]QLEN[Dopa][Cya]N) [in silico designed oxPTM-INSP-3 derivative]
- CD8+ T-cell response, subjects with SI > 1 (%) (CD8+ T-cells (PBMCs); Controls (N = 11)): (18.2%)
- CD8+ T-cell response, subjects with SI > 3 (%) (CD8+ T-cells (PBMCs); Controls (N = 11)): (9.10%)
- CD8+ T-cell response, subjects with SI > 5 (%) (CD8+ T-cells (PBMCs); Controls (N = 11)): (0.0%)
- CD8+ T-cell response, subjects with SI > 10 (%) (CD8+ T-cells (PBMCs); Controls (N = 11)): (0.0%)
- CD8+ T-cell response, subjects with SI > 1 (%) (CD8+ T-cells (PBMCs); Type 1 diabetes (N = 18)): (33.3%)
- CD8+ T-cell response, subjects with SI > 3 (%) (CD8+ T-cells (PBMCs); Type 1 diabetes (N = 18)): (16.7%)
- CD8+ T-cell response, subjects with SI > 5 (%) (CD8+ T-cells (PBMCs); Type 1 diabetes (N = 18)): (5.5%)
- CD8+ T-cell response, subjects with SI > 10 (%) (CD8+ T-cells (PBMCs); Type 1 diabetes (N = 18)): (5.6%)
- CD4+ T-cell response, subjects with SI > 1 (%) (CD4+ T-cells (PBMCs); Controls (N = 11)): (27.3%)
- CD4+ T-cell response, subjects with SI > 3 (%) (CD4+ T-cells (PBMCs); Controls (N = 11)): (0.0%)
- CD4+ T-cell response, subjects with SI > 5 (%) (CD4+ T-cells (PBMCs); Controls (N = 11)): (0.0%)
- CD4+ T-cell response, subjects with SI > 10 (%) (CD4+ T-cells (PBMCs); Controls (N = 11)): (0.0%)
- CD4+ T-cell response, subjects with SI > 1 (%) (CD4+ T-cells (PBMCs); Type 1 diabetes (N = 18)): (66.7%)
- CD4+ T-cell response, subjects with SI > 3 (%) (CD4+ T-cells (PBMCs); Type 1 diabetes (N = 18)): (5.6%)
- CD4+ T-cell response, subjects with SI > 5 (%) (CD4+ T-cells (PBMCs); Type 1 diabetes (N = 18)): (0.0%)
- CD4+ T-cell response, subjects with SI > 10 (%) (CD4+ T-cells (PBMCs); Type 1 diabetes (N = 18)): (0.0%)

- % binders, Healthy controls (serum IgG autoantibodies; in house modifications): 27%
- Mean ± SEM (absorbance, OD), Healthy controls (serum IgG autoantibodies; in house modifications): 0.344 ± 0.022
- % binders, Type 1 diabetes (serum IgG autoantibodies; in house modifications): 58%
- Mean ± SEM (absorbance, OD), Type 1 diabetes (serum IgG autoantibodies; in house modifications): 0.539 ± 0.068
Substance: INSP-4 oxPTM-•OH: INSP-4 peptide oxidised in house by hydroxyl radical (LVEALYLVCGERGFFYTPKT; also: oxidised by hydroxyl radical, modified residues not defined)

- % binders, Healthy controls (serum IgG autoantibodies; in house modifications): 40%
- Mean ± SEM (absorbance, OD), Healthy controls (serum IgG autoantibodies; in house modifications): 0.452 ± 0.048
- % binders, Type 1 diabetes (serum IgG autoantibodies; in house modifications): 53%
- Mean ± SEM (absorbance, OD), Type 1 diabetes (serum IgG autoantibodies; in house modifications): 0.473 ± 0.037
Substance: INSP-3 oxPTM-HOCI: INSP-3 peptide oxidised in house by HOCl (SLYQLENYCN; not fully specified (N-terminus); also: oxidised by HOCl, modified residues not defined)

- Antibody reactivity of serum samples (in words) (serum IgG autoantibodies; ELISA): No significant reactivity
Substance: YLVCGERGFF [INSP-1, insulin B:16-25 peptide]

- % binders, Healthy controls (serum IgG autoantibodies; in silico modifications): 48%
- Mean ± SEM (absorbance, OD), Healthy controls (serum IgG autoantibodies; in silico modifications): 0.423 ± 0.039
- % binders, Type 1 diabetes (serum IgG autoantibodies; in silico modifications): 88%
- Mean ± SEM (absorbance, OD), Type 1 diabetes (serum IgG autoantibodies; in silico modifications): 0.697 ± 0.058
Substance: ERGYYYTPKTR (Ac-ERGYYYTPKTR) [oxPTM-INSP-6 version with a C-terminal arginine]
- CD8+ T-cell response, subjects with SI > 1 (%) (CD8+ T-cells (PBMCs); Controls (N = 11)): (18.2%)
- CD8+ T-cell response, subjects with SI > 3 (%) (CD8+ T-cells (PBMCs); Controls (N = 11)): (9.10%)
- CD8+ T-cell response, subjects with SI > 5 (%) (CD8+ T-cells (PBMCs); Controls (N = 11)): (9.1%)
- CD8+ T-cell response, subjects with SI > 10 (%) (CD8+ T-cells (PBMCs); Controls (N = 11)): (9.1%)
- CD8+ T-cell response, subjects with SI > 1 (%) (CD8+ T-cells (PBMCs); Type 1 diabetes (N = 18)): (55.6%)
- CD8+ T-cell response, subjects with SI > 3 (%) (CD8+ T-cells (PBMCs); Type 1 diabetes (N = 18)): (16.7%)
- CD8+ T-cell response, subjects with SI > 5 (%) (CD8+ T-cells (PBMCs); Type 1 diabetes (N = 18)): (16.7%)
- CD8+ T-cell response, subjects with SI > 10 (%) (CD8+ T-cells (PBMCs); Type 1 diabetes (N = 18)): (16.7%)
- CD4+ T-cell response, subjects with SI > 1 (%) (CD4+ T-cells (PBMCs); Controls (N = 11)): (63.6%)
- CD4+ T-cell response, subjects with SI > 3 (%) (CD4+ T-cells (PBMCs); Controls (N = 11)): (27.3%)
- CD4+ T-cell response, subjects with SI > 5 (%) (CD4+ T-cells (PBMCs); Controls (N = 11)): (0.0%)
- CD4+ T-cell response, subjects with SI > 10 (%) (CD4+ T-cells (PBMCs); Controls (N = 11)): (0.0%)
- CD4+ T-cell response, subjects with SI > 1 (%) (CD4+ T-cells (PBMCs); Type 1 diabetes (N = 18)): (72.2%)
- CD4+ T-cell response, subjects with SI > 3 (%) (CD4+ T-cells (PBMCs); Type 1 diabetes (N = 18)): (38.9%)
- CD4+ T-cell response, subjects with SI > 5 (%) (CD4+ T-cells (PBMCs); Type 1 diabetes (N = 18)): (15.8%)
- CD4+ T-cell response, subjects with SI > 10 (%) (CD4+ T-cells (PBMCs); Type 1 diabetes (N = 18)): (16.7%)
